IC50 data for 27 molecules are collected here from patent US11466034B2, “Compound functioning as bromodomain protein inhibitor, and composition” (Betta Pharmaceuticals Co., Ltd., priority 2017, dated 2022).

Where only a bound is given, the exact number is not on record here.

Assay [1] deals with BRD4(D1) (Homo sapiens (Human), UniProt O60885). Nature of the assay: Inhibitory activity against BRD4(D1), HTRF assay. The assay is classed as binding. The procedure:
(§1) (+)-JQ1 was used as comparison compound, to evaluated the inhibitory activity of compounds of the invention against BRD4(D1) and BRD4(D2) in vitro.
(§2) The assays of BRD4 (D1) and BRD4 (D2) were conducted in a 384-well polystyrene plate. The test compounds were first serially diluted in DMSO and the test compound/DMSO were transferred to 384-well plates. The final concentration of DMSO in the assay was 0.1%. 2 volumes of protein/peptide mixture were added into 384-well plates, then 2 volumes of assay mixture were added, and shake for 30 s. The plate was incubated at room temperature for 2 h. Then the HTRF signal on EnVision was readed.
(§3) Use equation (1) to fit the date in Excel to obtain the value of the inhibition rate. Inhibition rate (%)=(maximum value−signal value)/(maximum value−minimum value)*100 Equation(1):
(§4) IC50 determination was performed by fitting the data using GraphPad Prism 5.0 software and equation (2). Y=bottom+(Top−bottom)/(1+10^((Log IC50−X)*HillSlope)); Equation(2): wherein, Y represents the percentage of inhibition (%); X represents the concentration of test compounds.
(§5) The IC50 data of the examples were provided in the following table, wherein, A stands for IC50<100 nM; B stands for IC50 is 100-300 nM; C stands for IC50>300 nM.
A general note: In TR-FRET formats the signal depends on donor and acceptor labels being close together.

Assay [2] has as its target BRD4(D2) (Homo sapiens (Human), UniProt O60885). The assay can be described thus: Inhibitory activity against BRD4(D2), HTRF assay. In kind it is binding. The procedure: as §1, §2, §3, §4, §5

In the case of `Cc1nc2ncc(-c3cn(C)c(=O)c4[nH]ccc34)cc2n1Cc1ccc(Cl)cc1` [Example 1, 4-(1-(4-chlorobenzyl)-2-methyl-1H-imidazo[4,5-b]pyridin-6-yl)-6-methyl-1H-pyrrolo[2,3-c]pyridin-7(6H)-one], the results for the IC50 in assay [1] (numeric values) and in assay [2] (numeric values) were 7 nM and 2.5 nM, respectively.
Taken in the same sequence, the figures for `COc1ccc(Cn2c(C)nc3ncc(-c4cn(C)c(=O)c5[nH]ccc45)cc32)cc1` [Example 2, 4-(1-(4-methoxybenzyl)-2-methyl-1H-imidazo[4,5-b]pyridin-6-yl)-6-methyl-1H-pyrrolo[2,3-c]pyridin-7(6H)-one] were 10.4 nM and 3 nM.
Taken in the same sequence, the figures for `CSc1ccc(Cn2c(C)nc3ncc(-c4cn(C)c(=O)c5[nH]ccc45)cc32)cc1` [Example 3, 6-methyl-4-(2-methyl-1-(4-(methylthio)benzyl)-1H-imidazo[4,5-b]pyridin-6-yl)-1H-pyrrolo[2,3-c]pyridin-7(6H)-one] were 12.7 nM and 3.2 nM.
`Cc1nc2ncc(-c3cn(C)c(=O)c4[nH]ccc34)cc2n1Cc1ccc(C(F)(F)F)cc1` [Example 4, 6-methyl-4-(2-methyl-1-(4-(trifluoromethyl)benzyl)-1H-imidazo[4,5-b]pyridin-6-yl)-1H-pyrrolo[2,3-c]pyridin-7(6H)-one]: the half-inhibitory concentration (IC50) (usually the concentration that gives 50% inhibition) in assay [1] (numeric values) turned out to be 14.6 nM; in assay [2] (numeric values) it was 4 nM.
In the same order, the values of `Cc1nc2ncc(-c3cn(C)c(=O)c4[nH]ccc34)cc2n1Cc1ccccc1` [Example 6, 4-(1-benzyl-2-methyl-1H-imidazo[4,5-b]pyridin-6-yl)-6-methyl-1H-pyrrolo[2,3-c]pyrid in-7(6H)one] are 7.6 nM and 2.8 nM.
Regarding `Cc1nc2ncc(-c3cn(C)c(=O)c4[nH]ccc34)cc2n1C` [Example 7, 4-(1,2-dimethyl-1H-imidazo[4,5-b]pyridin-6-yl)-6-methyl-1,6-dihydro-7H-pyrrolo[2,3-c]pyridin-7-one], the results for the IC50 in assay [1] (numeric values) and in assay [2] (numeric values) were 52.4 nM and 10.8 nM, respectively.
In the same order, the values of `Cc1nc2ncc(-c3cn(C)c(=O)c4[nH]ccc34)cc2[nH]1` [Example 8, 6-methyl-4-(2-methyl-1H-imidazo[4,5-b]pyridin-6-yl)-1,6-dihydro-7H-pyrrolo[2,3-c]pyridin-7-one] are 39.9 nM and 6 nM.
With `COC(=O)c1ccc(Cn2c(C)nc3ncc(-c4cn(C)c(=O)c5[nH]ccc45)cc32)cc1` [Example 9, methyl 4-((2-methyl-6-(6-methyl-7-oxo-6,7-dihydro-1H-pyrrolo[2,3-c]pyridin-4-yl)-1H-imidazo[4,5-b]pyridin-1-yl)methyl)benzoate], the IC50 in assay [1] (class symbols) and in assay [2] (class symbols) was 100 to 300 nM each time.
In the case of `COc1ccc(Cn2c(C)nc3ncc(-c4cn(Cc5ccccc5)c(=O)c5[nH]ccc45)cc32)cc1` [Example 10, 6-benzyl-4-(1-(4-methoxybenzyl)-2-methyl-1H-imidazo[4,5-b]pyridin-6-yl)-1,6-dihydro-7H-pyrrolo[2,3-c]pyridin-7-one], the IC50 in assay [1] (class symbols) and in assay [2] (class symbols) was greater than 300 nM each time.
As to `COc1ccc(Cn2c(C)nc3ncc(-c4cn(CC(C)C)c(=O)c5[nH]ccc45)cc32)cc1` [Example 11, 6-isobutyl-4-(1-(4-methoxybenzyl)-2-methyl-1H-imidazo[4,5-b]pyridin-6-yl)-1,6-dihydro-7H-pyrrolo[2,3-c]pyridin-7-one], the IC50 in assay [1] (class symbols) was greater than 300 nM; in assay [2] (class symbols), 100 to 300 nM.
Taken in the same sequence, the figures for `CCn1cc(-c2cnc3nc(C)n(Cc4ccc(OC)cc4)c3c2)c2cc[nH]c2c1=O` [Example 12, 6-ethyl-4-(1-(4-methoxybenzyl)-2-methyl-1H-imidazo[4,5-b]pyridin-6-yl)-1,6-dihydro-7H-pyrrolo[2,3-c]pyridin-7-one] were 100 to 300 nM and 100 to 300 nM.
In the same order, the values of `COc1ccc(Cn2c(C)nc3ncc(-c4c[nH]c(=O)c5[nH]c(C)cc45)cc32)cc1` [Example 13, 4-(1-(4-methoxybenzyl)-2-methyl-1H-imidazo[4,5-b]pyridin-6-yl)-2-methyl-1,6-dihydro-7H-pyrrolo[2,3-c]pyridin-7-one] are 100 to 300 nM and 100 to 300 nM.
Taken in the same sequence, the figures for `COc1ccc(Cn2c(C)nc3ncc(-c4cn(Cc5nccs5)c(=O)c5[nH]ccc45)cc32)cc1` [Example 14, 4-(1-(4-methoxybenzyl)-2-methyl-1H-imidazo[4,5-b]pyridin-6-yl)-6-(thiazol-2-ylmethyl)-1,6-dihydro-7H-pyrrolo[2,3-c]pyridin-7-one] were 100 to 300 nM and greater than 300 nM.
In the case of `COc1ccc(Cn2c(C)nc3ncc(-c4cn(Cc5ccn[nH]5)c(=O)c5[nH]ccc45)cc32)cc1` [Example 15, 4-(1-(4-methoxybenzyl)-2-methyl-1H-imidazo[4,5-b]pyridin-6-yl)-6-(pyrazol-2-methyl)-1,6-dihydro-7H-pyrrolo[2,3-c]pyridin-7-one], the values for the IC50 in assay [1] (class symbols) and in assay [2] (class symbols) were greater than 300 nM and 100 to 300 nM, respectively.
Take `COc1cccc(Cn2c(C)nc3ncc(-c4c[nH]c(=O)c5[nH]c(C)cc45)cc32)c1` [Example 16, 4-(1-(3-methoxybenzyl)-2-methyl-1H-imidazo[4,5-b]pyridin-6-yl)-2-methyl-1,6-dihydro-7H-pyrrolo[2,3-c]pyridin-7-one]: the IC50 in assay [1] (class symbols) was 100 to 300 nM; in assay [2] (class symbols) it was less than 100 nM.
In the same order, the values of `Cc1nc2ncc(-c3cn(Cc4cccnc4)c(=O)c4[nH]ccc34)cc2n1Cc1ccc(Cl)cc1` [Example 17, 4-(1-(4-chlorobenzyl)-2-methyl-1H-imidazo[4,5-b]pyridin-6-yl)-6-(pyridin-3-ylmethyl)-1,6-dihydro-7H-pyrrolo[2,3-c]pyridin-7-one] are greater than 300 nM and greater than 300 nM.
For the molecule `COc1ccc(Cn2c(C)nc3ncc(-c4cn(C)c(=O)c5[nH]ccc45)nc32)cc1` [Example 20, 4-(1-(4-methoxybenzyl)-2-methyl-H-imidazo[4,5-b]pyrazin-6-yl)-6-methyl-1H-pyrrol o[2,3-c]pyridin-7(6H)-one], the IC50 in assay [1] (numeric values) turned out to be 12.8 nM; in assay [2] (numeric values) it was 2.5 nM.
Taken in the same sequence, the figures for `Cc1nc2ncc(-c3cn(C)c(=O)c4[nH]ccc34)nc2n1C(C)c1ccc(Cl)cc1` (centres unmarked) [Example 21, 4-(1-(1-(4-chlorophenyl)ethyl)-2-methyl-1H-imidazo[4,5-b]pyrazin-6-yl)-6-methyl-1,6-dihydro-7H-pyrrolo[2,3-c]pyridin-7-one] were 6.1 nM and 1.8 nM.
As to `Cc1nc2ncc(-c3cn(C)c(=O)c4[nH]ccc34)nc2n1Cc1ccccc1` [Example 22, 4-(1-benzyl-2-methyl-1H-imidazo[4,5-b]pyrazin-6-yl)-6-methyl-1H-pyrrolo[2,3-c]pyrid in-7(6H)-one], the IC50 in assay [1] (class symbols) and in assay [2] (class symbols) was less than 100 nM each time.
With `Cc1nc2ncc(-c3cn(C)c(=O)c4[nH]ccc34)nc2n1Cc1cc(C(F)(F)F)ccc1F` [Example 24, 4-(1-(2-fluoro-5-trifluoromethylbenzyl)-2-methyl-1H-imidazo[4,5-b]pyrazin-6-yl)-6-methyl-1H-pyrrolo[2,3-c]pyridin-7(6H)-one], the IC50 in assay [1] (class symbols) and in assay [2] (class symbols) was less than 100 nM in each case.
`Cc1nc2ncc(-c3cn(C)c(=O)c4[nH]ccc34)nc2n1Cc1ccc(Cl)cc1F` [Example 26, 4-(1-(2-fluoro-4-chlorobenzyl)-2-methyl-H-imidazo[4,5-b]pyrazin-6-yl)-6-methyl-H-pyrrolo[2,3-c]pyridin-7(6H)-one]: the IC50 in assay [1] (class symbols) and in assay [2] (class symbols) was less than 100 nM throughout.
Regarding `Cc1nc2ncc(-c3cn(C)c(=O)c4[nH]ccc34)nc2n1Cc1ccc(C(F)(F)F)c(F)c1` [Example 28, 4-(1-(3-fluoro-4-trifluoromethylbenzyl)-2-methyl-1H-imidazo[4,5-b]pyrazin-6-yl)-6-methyl-1H-pyrrolo[2,3-c]pyridin-7(6H)-one], the IC50 in assay [1] (class symbols) and in assay [2] (class symbols) was less than 100 nM each time.
`Cc1nc2ncc(-c3cn(C)c(=O)c4[nH]ccc34)nc2n1Cc1ccc(C(F)(F)F)c(Cl)c1` [Example 29, 4-(1-(3-chloro-4-trifluoromethylbenzyl)-2-methyl-1H-imidazo[4,5-b]pyrazin-6-yl)-6-methyl-1H-pyrrolo[2,3-c]pyridin-7(6H)-one]: the IC50 in assay [1] (class symbols) and in assay [2] (class symbols) was less than 100 nM throughout.
With `Cc1nc2ncc(-c3cn(C)c(=O)c4[nH]ccc34)nc2n1Cc1cccc(Cl)c1` [Example 30, 4-(1-(3-chlorobenzyl)-2-methyl-1H-imidazo[4,5-b]pyrazin-6-yl)-6-methyl-1H-pyrrolo[2,3-c]pyridin-7(6H)-one], the IC50 in assay [1] (class symbols) and in assay [2] (class symbols) was less than 100 nM throughout.
For the molecule `Cc1nc2ncc(-c3cn(C)c(=O)c4[nH]ccc34)nc2n1Cc1ccc(F)cc1F` [Example 31, 4-(1-(2,4-difluorobenzyl)-2-methyl-1H-imidazo[4,5-b]pyrazin-6-yl)-6-methyl-1H-pyrrolo[2,3-c]pyridin-7(6H)-one], the IC50 in assay [1] (class symbols) and in assay [2] (class symbols) was less than 100 nM each time.
Take `Cc1nc2ncc(-c3cn(C)c(=O)c4[nH]ccc34)nc2n1Cc1ccc(Br)cc1` [Example 32, 4-(1-(4-bromobenzyl)-2-methyl-1H-imidazo[4,5-b]pyrazin-6-yl)-6-methyl-H-pyrrolo[2,3-c]pyridin-7(6H)-one]: the IC50 in assay [1] (class symbols) and in assay [2] (class symbols) was less than 100 nM throughout.
In assay [1] (numeric values), (+)-JQ1 [reference compound] yielded an IC50 of 16 nM.
